Source: ChEMBL document CHEMBL1201862, “PubChem BioAssay data set” (2004)
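All cell lines were grown in 96-well plates and treated with compound for 48 hours. GI50 marks 50% less growth.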 Calls of active or inactive are those of the source. Rule as the data show it: active = GI50 up to about 1.1 µM and inactive = higher.

Tests used:
Assay in all cases: NCI-60 cell line screen, 48 h
[1] = tested on: Malme-3M
[2] = tested on: IGROV-1
[3] = tested on: TK-10
[4] = tested on: OVCAR-4
[5] = tested on: KM-20L2
[6] = tested on: HOP-92
[7] = tested on: HOP-62
[8] = tested on: SNB-78
[9] = tested on: K562
[10] = tested on: SF-539
[11] = tested on: UACC-257
[12] = tested on: KM12
[13] = tested on: SW-620
[14] = tested on: NCI-H522
[15] = tested on: LXFL 529
[16] = tested on: SF-268
[17] = tested on: OVCAR-5
[18] = tested on: SNB-19
[19] = tested on: NCI-H460
[20] = tested on: OVCAR-3
[21] = tested on: ACHN
[22] = tested on: 786-0
[23] = tested on: HCT-116
[24] = tested on: NCI-H23
[25] = tested on: SK-MEL-28
[26] = tested on: EKVX
[27] = tested on: RXF 393
[28] = tested on: SR
[29] = tested on: CAKI-1
[30] = tested on: SF-295
[31] = tested on: LOX IMVI
[32] = tested on: XF498
[33] = tested on: HCC 2998
[34] = tested on: OVCAR-8
[35] = tested on: MOLT-4
[36] = tested on: HOP-18
[37] = tested on: M19-MEL
[38] = tested on: A549
[39] = tested on: SN12C
[40] = tested on: HL-60
[41] = tested on: DMS-273
[42] = tested on: CCRF-CEM
[43] = tested on: U-251
[44] = tested on: HT-29
[45] = tested on: SK-MEL-2
[46] = tested on: A498
[47] = tested on: COLO 205
[48] = tested on: NCI-H226
[49] = tested on: SK-OV-3
[50] = tested on: UO-31
[51] = tested on: HCT-15
[52] = tested on: UACC-62
[53] = tested on: DMS-114
[54] = tested on: SK-MEL-5
[55] = tested on: M14
[56] = tested on: DLD-1
[57] = tested on: SNB-75
[58] = tested on: RPMI-8226

Measured: GI50

FC(F)(F)C12C34C=CC5(CCC6(C=CC1(CC3)O6)C52C(F)(F)F)O4 (stereo not given)
inactive: [1] > 100 µM | [2] > 100 µM | [3] > 100 µM | [4] > 100 µM | [5] > 100 µM | [6] > 100 µM | [7] > 100 µM | [8] > 100 µM | [9] > 100 µM | [10] > 100 µM | [11] > 100 µM | [12] > 100 µM | [13] > 100 µM | [14] > 100 µM | [15] > 100 µM | [16] > 100 µM | [17] > 100 µM | [18] > 100 µM | [19] > 100 µM | [20] > 100 µM | [21] > 100 µM | [22] > 100 µM | [23] > 100 µM | [24] > 100 µM | [25] > 100 µM | [26] > 100 µM | [27] 93.5 µM | [28] > 100 µM | [29] > 100 µM | [30] > 100 µM | [31] > 100 µM | [32] > 100 µM | [33] > 100 µM | [34] > 100 µM | [35] > 100 µM | [36] > 100 µM | [37] > 100 µM | [38] > 100 µM | [39] > 100 µM | [40] > 100 µM | [41] > 100 µM | [42] > 100 µM | [43] > 100 µM | [44] > 100 µM | [45] > 100 µM | [46] > 100 µM | [47] > 100 µM | [48] > 100 µM | [49] > 100 µM

CC(Oc1ccc(OCC2CCCCC2)cc1)C(=O)NCc1ccco1 (stereo not given)
inactive: [1] 27 µM | [2] 43.7 µM | [3] 84.7 µM | [4] 56.5 µM | [50] 28.3 µM | [52] 56 µM | [8] 58.6 µM | [9] 42.3 µM | [10] 37.7 µM | [11] 23.6 µM | [53] 18.4 µM | [12] 37.1 µM | [14] 18.4 µM | [15] 35.6 µM | [16] 98.9 µM | [18] 74.3 µM | [19] 48.1 µM | [20] 40.6 µM | [21] 36.1 µM | [22] 34.6 µM | [23] 26.4 µM | [54] 15.7 µM | [25] 43.6 µM | [55] 18.7 µM | [27] 22.6 µM | [31] 20.7 µM | [32] 17.7 µM | [56] 34.9 µM | [33] 36.6 µM | [34] 24.9 µM | [57] 25.6 µM | [35] 34.9 µM | [36] 89.7 µM | [37] 40.7 µM | [38] 34.9 µM | [39] 51.1 µM | [40] 31.5 µM | [41] 25.5 µM | [42] 41 µM | [43] 36.6 µM | [44] 22.1 µM | [45] 21 µM | [46] 24.7 µM | [48] 28.8 µM | [49] 98.9 µM
48.1 µM: [51]

CC(C)(C)c1cc2c3c(c1)C(C(F)(F)F)(C(F)(F)F)O[Te]3(C)OC2(C(F)(F)F)C(F)(F)F
inactive: [1] > 100 µM | [2] > 100 µM | [3] > 100 µM | [4] > 100 µM | [50] > 100 µM | [5] > 100 µM | [7] > 100 µM | [52] > 100 µM | [8] > 100 µM | [9] > 100 µM | [10] > 100 µM | [11] > 100 µM | [53] > 100 µM | [12] > 100 µM | [13] > 100 µM | [14] > 100 µM | [15] > 100 µM | [16] > 100 µM | [17] > 100 µM | [18] > 100 µM | [19] > 100 µM | [20] > 100 µM | [21] > 100 µM | [22] > 100 µM | [23] > 100 µM | [24] > 100 µM | [58] > 100 µM | [25] > 100 µM | [26] > 100 µM | [55] > 100 µM | [27] > 100 µM | [28] > 100 µM | [29] > 100 µM | [30] > 100 µM | [31] > 100 µM | [32] > 100 µM | [56] > 100 µM | [33] > 100 µM | [34] > 10 µM | [35] > 100 µM | [36] > 100 µM | [37] > 100 µM | [38] > 100 µM | [39] > 100 µM | [40] > 100 µM | [41] > 100 µM | [42] > 100 µM | [43] > 100 µM | [44] > 100 µM | [45] > 100 µM | [47] > 100 µM | [48] > 100 µM | [49] > 100 µM
> 100 µM: [51]

Nc1ccc(-c2cc(C(=O)Nc3nccs3)nc(S)n2)cc1
> 100 µM: [51]
inactive: [1] > 100 µM | [2] > 100 µM | [3] > 100 µM | [4] > 100 µM | [50] > 100 µM | [5] > 100 µM | [6] > 100 µM | [52] > 100 µM | [8] > 100 µM | [9] > 100 µM | [10] > 100 µM | [11] > 100 µM | [53] > 100 µM | [12] > 100 µM | [13] > 100 µM | [14] > 100 µM | [15] > 100 µM | [16] > 100 µM | [17] > 100 µM | [18] > 100 µM | [20] > 100 µM | [21] > 100 µM | [22] > 100 µM | [23] > 100 µM | [54] > 100 µM | [24] > 100 µM | [58] > 100 µM | [25] > 100 µM | [26] > 100 µM | [55] > 100 µM | [27] > 100 µM | [29] > 100 µM | [31] > 100 µM | [32] > 100 µM | [56] > 100 µM | [34] > 100 µM | [57] > 100 µM | [35] > 100 µM | [36] 61.1 µM | [37] > 100 µM | [38] > 100 µM | [39] > 100 µM | [42] > 100 µM | [43] > 100 µM | [44] > 100 µM | [45] > 100 µM | [46] > 100 µM | [47] > 100 µM | [48] > 100 µM | [49] > 100 µM

CN1C(=O)N(C)C(N2CCCC2)c2c1nc1ccccn1c2=O (stereo not given)
56.6 µM: [51]
inactive: [1] > 100 µM | [2] > 100 µM | [3] > 100 µM | [4] 58.1 µM | [50] > 100 µM | [5] > 100 µM | [6] 42.7 µM | [7] > 100 µM | [52] 67 µM | [8] 57.4 µM | [9] 53.1 µM | [10] 33.3 µM | [11] 50.7 µM | [53] 56.2 µM | [12] > 100 µM | [13] 60.5 µM | [14] 61 µM | [15] 63.5 µM | [16] > 100 µM | [18] 99.5 µM | [19] 76.4 µM | [20] 77.3 µM | [21] > 100 µM | [22] 97.9 µM | [23] 60.4 µM | [24] > 100 µM | [58] 88.7 µM | [25] > 100 µM | [26] 43.3 µM | [55] 68.9 µM | [27] 49 µM | [28] 34.8 µM | [30] > 100 µM | [31] 36.5 µM | [32] 77.8 µM | [56] 35.3 µM | [33] 76.9 µM | [34] > 100 µM | [57] 45.9 µM | [35] > 100 µM | [36] > 100 µM | [37] 92.5 µM | [38] > 100 µM | [39] 54.3 µM | [40] 36.8 µM | [41] 43.4 µM | [42] 37.6 µM | [43] 70.5 µM | [44] > 100 µM | [45] 29.7 µM | [46] 34.8 µM | [47] > 100 µM | [48] > 100 µM | [49] 78.5 µM
